# Where a name gives a salt, the structure may show the parent alone.
# Molecular target: human activated kallikrein enzyme (Homo sapiens, UniProt P03952)
# Assay: Inhibition of human activated plasma kallikrein, fluorogenic PFR-AMC substrate, 500 pM enzyme format
# Type: biochemical
# Conditions: 500 pM activated kallikrein; 300 μM PFR-AMC; 30 min preincubation; 10 min room temperature; pH 7.5; read-out: Primary Dose Response Assay: Average EC50
# Method in brief: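 Using fluorogenic PFR-AMC at 300 μM, cleavage by 500 pM human activated kallikrein ran 10 min at room temperature, read at 460 nm emission (380 nm excitation). Enzyme and compounds were first preincubated 30 min in 20 mM Tris pH 7.5, 150 mM NaCl, 1 mM EDTA, 0.1% PEG-400, 0.1% Triton X-100.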
# Chain of human activated kallikrein enzyme (P03952 391-638 limits assumed): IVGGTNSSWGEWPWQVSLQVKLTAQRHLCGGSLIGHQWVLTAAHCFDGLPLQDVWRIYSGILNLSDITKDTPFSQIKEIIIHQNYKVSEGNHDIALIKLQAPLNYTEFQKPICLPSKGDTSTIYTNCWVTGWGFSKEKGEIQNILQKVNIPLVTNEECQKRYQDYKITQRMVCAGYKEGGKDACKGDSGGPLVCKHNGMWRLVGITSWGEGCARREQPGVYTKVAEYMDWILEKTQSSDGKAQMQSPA
# Chain of human activated kallikrein enzyme (P03952 20-390 partner limits assumed): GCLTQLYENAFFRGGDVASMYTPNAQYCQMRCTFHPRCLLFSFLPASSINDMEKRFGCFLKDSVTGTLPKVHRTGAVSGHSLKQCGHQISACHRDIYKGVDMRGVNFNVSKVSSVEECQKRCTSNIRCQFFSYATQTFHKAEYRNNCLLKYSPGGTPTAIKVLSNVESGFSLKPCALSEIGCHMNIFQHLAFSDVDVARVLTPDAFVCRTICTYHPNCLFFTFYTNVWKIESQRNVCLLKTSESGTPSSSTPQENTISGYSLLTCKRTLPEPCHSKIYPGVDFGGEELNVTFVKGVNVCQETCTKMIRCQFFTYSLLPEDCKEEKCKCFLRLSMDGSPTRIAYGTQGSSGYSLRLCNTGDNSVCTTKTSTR
row,Compound,EC50
1,"Cc1cc2c(N)nccc2c(C)c1CNc1cc(NCc2ccc(Cc3ccccn3)cc2)ncn1 [Example 363, N^4-((1-amino-5,7-dimethylisoquinolin-6-yl)methyl)-N^6-(4-(pyridin-2-ylmethyl)benzyl)pyrimidine-4,6-diamine]",< 1 nM
2,"Cc1cc2c(N)nccc2c(C)c1CNc1cc(NCc2ccc(Cc3ncccc3Cl)cc2)ncn1 [Example 365, N^4-((1-amino-5,7-dimethylisoquinolin-6-yl)methyl)-N^6-(4-((3-chloropyridin-2-yl)methyl)benzyl)pyrimidine-4,6-diamine]",1 to 10 nM
3,"Cc1cc2c(N)nccc2c(C)c1CNc1cc(NC(C)c2ccc(Cc3ccccn3)cc2)ncn1 (centres unmarked) [Example 366, N^4-((1-amino-5,7-dimethylisoquinolin-6-yl)methyl)-N^6-(1-(4-(pyridin-2-ylmethyl)phenyl)ethyl)pyrimidine-4,6-diamine]",< 1 nM
4,"Cc1cc2c(N)nccc2c(C)c1CNc1cc(NCc2ccc(Cc3ccc(Cl)cn3)cc2)ncn1 [Example 369, N^4-((1-amino-5,7-dimethylisoquinolin-6-yl)methyl)-N^6(4-((5-chloropyridin-2-yl)methyl)benzyl)pyrimidine-4,6-diamine]",1 to 10 nM
5,"Cc1cc2c(N)nccc2c(C)c1CNc1nncc(NCc2ccc(Cn3cccn3)cc2)n1 [Example 376, N^5-(4-((1H-pyrazol-1-yl)methyl)benzyl)-N^3-((1-amino-5,7-dimethylisoquinolin-6-yl)methyl)-1,2,4-triazine-3,5-diamine]",< 1 nM
6,"Cc1cc2c(N)nccc2c(C)c1CNc1cc(NCc2ccc(OCC(=O)N(C)C)cc2)ncn1 [Example 377, 2-(4-(((6-(((1-amino-5,7-dimethylisoquinolin-6-yl)methyl)amino)pyrimidin-4-yl)amino)methyl)phenoxy)-N,N-dimethylacetamide]",< 1 nM
7,"Cc1cc2c(N)nccc2c(C)c1CNc1cc(NCc2ccc(CC(=O)N3CC4CC4C3)cc2)ncn1 (centres unmarked) [Example 378, 2-(4-(((6-(((1-amino-5,7-dimethylisoquinolin-6-yl)methyl)amino)pyrimidin-4-yl)amino)methyl)phenyl)-1-(3-azabicyclo[3.1.0]hexan-3-yl)ethan-1-one]",< 1 nM
8,"Cc1cc2c(N)nccc2c(C)c1CNc1cc(NCc2ccc(Cn3cccn3)cc2F)ncn1 [Example 379, N^4-(4-((1H-pyrazol-1-yl)methyl)-2-fluorobenzyl)-N^6-((1-amino-5,7-dimethylisoquinolin-6-yl)methyl)pyrimidine-4,6-diamine]",< 1 nM
9,"Cc1cc2c(N)nccc2c(C)c1CNc1cc(NCc2ccc(Cn3cccn3)cc2C(F)(F)F)ncn1 [Example 380, N^4-(4-((1H-pyrazol-1-yl)methyl)-2-(trifluoromethyl)benzyl)-N^6-((1-amino-5,7-dimethylisoquinolin-6-yl)methyl)pyrimidine-4,6-diamine]",1 to 10 nM
10,"Cc1cc2c(N)nccc2c(C)c1CNc1cc(N(Cc2ccc(Cn3cccn3)cc2C(F)(F)F)N=O)ncn1 [Example 381, N-(4-((1H-pyrazol-1-yl)methyl)-2-(trifluoromethyl)benzyl)-N-(6-(((1-amino-5,7-dimethylisoquinolin-6-yl)methyl)amino)pyrimidin-4-yl)nitrous amide]",10 to 100 nM
11,"Cc1cc2c(N)nccc2c(C)c1CNc1cc(NCc2ccc(C(F)(F)n3cccn3)cc2)ncn1 [Example 382, N^4-((1-amino-5,7-dimethylisoquinolin-6-yl)methyl)-N^6-(4-(difluoro(1H-pyrazol-1-yl)methyl)benzyl)pyrimidine-4,6-diamine]",1 to 10 nM
12,"Cc1cc2c(N)nccc2c(C)c1CNc1cc(NCc2ccc(Cn3cccn3)c(C(F)(F)F)c2)ncn1 [Example 383, N^4-(4-((1H-pyrazol-1-yl)methyl)-3-(trifluoromethyl)benzyl)-N^6-((1-amino-5,7-dimethylisoquinolin-6-yl)methyl)pyrimidine-4,5-diamine]",< 1 nM
13,"Cc1cc2c(N)nccc2c(C)c1CNc1cc(NCc2ccc(Cn3cccn3)cc2F)cnn1 [Example 385, N^5-(4-((1H-pyrazol-1-yl)methyl)-2-fluorobenzyl)-N^3-((1-amino-5,7-dimethylisoquinolin-6-yl)methyl)pyridazine-3,5-diamine]",< 1 nM
14,"Cc1cc2c(N)nccc2c(C)c1CNc1cc(OCc2cn3nc(C4CC4)ccc3n2)nc(C(F)(F)F)n1 [Example 389, 6-(((6-((6-cyclopropylimidazo[1,2-b]pyridazin-2-yl)methoxy)-2-(trifluoromethyl)pyrimidin-4-yl)amino)methyl)-5,7-dimethylisoquinolin-1-amine]",10 to 100 nM

# Further lines, results first:
row,EC50,Compound
1,1 to 10 nM,"Cc1cc2c(N)nccc2c(C)c1CNc1cc(NCc2ccc(Oc3ccccn3)cc2)ncn1 [Example 361, N^4-((1-amino-5,7-dimethylisoquinolin-6-yl)methyl)-N^6-(4-(pyridin-2-yloxy)benzyl)pyrimidine-4,6-diamine]"
2,< 1 nM,"Cc1cc2c(N)nccc2c(C)c1CNc1cc(NCc2ccc(Cc3nccs3)cc2)ncn1 [Example 362, N^4-((1-amino-5,7-dimethylisoquinolin-6-yl)methyl)-N^6-(4-(thiazol-2-ylmethyl)benzyl)pyrimidine-4,6-diamine]"
3,< 1 nM,"Cc1ccnc(Cc2ccc(CNc3cc(NCc4c(C)cc5c(N)nccc5c4C)ncn3)cc2)c1 [Example 364, N^4-((1-amino-5,7-dimethylisoquinolin-6-yl)methyl)-N^6-(4-((4-methylpyridin-2-yl)methyl)benzyl)pyrimidine-4,6-diamine]"
4,< 1 nM,"Cc1cc(CNc2cc(NCc3c(C)cc4c(N)nccc4c3C)ncn2)cc(C)c1Cn1cccn1 [Example 367, N^4-(4-((1H-pyrazol-1-yl)methyl)-3,5-dimethylbenzyl)-N^6-((1-amino-5,7-dimethylisoquinolin-6-yl)methyl)pyrimidine-4,6-diamine]"
5,< 1 nM,"Cc1cc(CNc2cc(NCc3c(C)cc4c(N)nccc4c3C)ncn2)cc(C)c1Cc1ccccn1 [Example 368, N^4-((1-amino-5,7-dimethylisoquinolin-6-yl)methyl)-N^6-(3,5-dimethyl-4-(pyridin-2-ylmethyl)benzyl)pyrimidine-4,6-diamine]"
6,100 to 1000 nM,"Cc1cc2c(N)nccc2c(C)c1CNc1cc(OCc2cccc(-n3ccccc3=O)c2)ncn1 [Example 370, 1-(3-(((6-(((1-amino-5,7-dimethylisoquinolin-6-yl)methyl)amino)pyrimidin-4-yl)oxy)methyl)phenyl)pyridin-2(1H)-one]"
7,1 to 10 nM,"Cc1ccc2ncc(COc3cc(NCc4c(C)cc5c(N)nccc5c4C)ncn3)cc2c1 [Example 372, 5,7-dimethyl-6-(((6-((6-methylquinolin-3-yl)methoxy)pyrimidin-4-yl)amino)methyl)isoquinolin-1-amine formic acid salt]"
8,10 to 100 nM,"Cc1cc2c(N)nccc2c(C)c1CNc1cc(OCc2ccc3ncccc3c2)ncn1 [Example 374, 5,7-dimethyl-6-(((6-(quinolin-6-ylmethoxy)pyrimidin-4-yl)amino)methyl)isoquinolin-1-amine]"

# Same assay, conditions: Primary Dose Response Assay: Average EC50, 500 pM activated kallikrein; 300 μM PFR-AMC; 30 min preincubation; 10 min room temperature; pH 7.5
row,EC50,Compound
1,< 1 nM,"Cc1cc2c(N)nccc2c(C)c1CNc1cc(NCc2ccc(CC(=O)N(C)C)cc2)ncn1 [Example 375, 2-(4-(((6-(((1-amino-5,7-dimethylisoquinolin-6-yl)methyl)amino)pyrimidin-4-yl)amino)methyl)phenyl)-N,N-dimethylacetamide]"
